Reference: ChEMBL document CHEMBL2040737, “Synthesis and biological evaluation of novel 2-(2-arylmethylene)hydrazinyl-4-aminoquinazoline derivatives as potent antitumor agents” (Eur J Med Chem, 2012)

Legend:
[1] = tested on: NCI-H460; assay: Cytotoxicity against human H460 cells after 72 hrs by MTT assay; assay type: functional, cell-based; details: NCI-H460, 72 h
[2] = tested on: SGC-7901; assay: Cytotoxicity against human SGC7901 cells after 72 hrs by MTT assay; assay type: functional, cell-based; details: SGC-7901, 72 h
[3] = tested on: HepG2; assay: Cytotoxicity against human HepG2 cells after 72 hrs by MTT assay; assay type: functional, cell-based; details: HepG2, 72 h
[4] = tested on: HT-29; assay: Cytotoxicity against human HT-29 cells after 72 hrs by MTT assay; assay type: functional, cell-based; details: HT-29, 72 h
[5] = tested on: HepG2; assay: Ratio of iressa IC50 to compound IC50 for human HepG2 cells; assay type: functional
[6] = tested on: HT-29; assay: Ratio of iressa IC50 to compound IC50 for human HT-29 cells; assay type: functional

Compound | IC50 [1] [nM] | IC50 [2] [nM] | IC50 [3] [nM] | IC50 [4] [nM] | Ratio IC50 [5] | Ratio IC50 [6]
CN(C)CCCNc1nc(N/N=C/c2ccc(F)cc2Cl)nc2ccccc12 | 1800 | 1660 | 670 | 1150 | – | –
CN(C)CCNc1nc(N/N=C/c2ccc(F)cc2Cl)nc2ccccc12 | 1760 | 1680 | 680 | 330 | – | –
CN(C)CCCNc1nc(N/N=C/c2nccn2Cc2ccc(F)cc2)nc2ccccc12 | 640 | 3510 | 2860 | 630 | – | –
Oc1ccccc1/C=N/Nc1nc(NCCCN2CCOCC2)c2ccccc2n1 | 2950 | 3210 | 3830 | 2080 | – | –
CN(C)CCCNc1nc(N/N=C/c2ccc(F)cc2)nc2ccccc12 | 4090 | 2760 | 880 | 870 | – | –
Cc1ccc(Cn2ccnc2/C=N/Nc2nc(NC3CCN(C)CC3)c3ccccc3n2)cc1 | 770 | 960 | 1230 | 200 | – | –
CN1CCC(Nc2nc(N/N=C/c3ccc(F)cc3Cl)nc3ccccc23)CC1 | 610 | 1630 | 1120 | 270 | – | –
CN(C)CCNc1nc(N/N=C/c2ccc(Cl)cc2)nc2ccccc12 | 3250 | 970 | 370 | 210 | – | –
C(=N\Nc1nc(NCCCN2CCOCC2)c2ccccc2n1)/c1nccn1Cc1ccccc1 | 4030 | 3960 | 4800 | 2840 | – | –
CN(C)CCCNc1nc(N/N=C/c2nccn2Cc2cccc(Cl)c2Cl)nc2ccccc12 | 430 | 1170 | 850 | 360 | – | –
Fc1ccc(Cn2ccnc2/C=N/Nc2nc(NCCCN3CCOCC3)c3ccccc3n2)cc1 | 2470 | 1920 | 2210 | 930 | – | –
CN1CCC(Nc2nc(N/N=C/c3ccc(Cl)cc3)nc3ccccc23)CC1 | 210 | 1320 | 170 | 23 | – | –
Cc1ccc(Cn2ccnc2/C=N/Nc2nc(NCCCN3CCOCC3)c3ccccc3n2)cc1 | 3760 | 3020 | 3190 | 3160 | – | –
CN(C)CCNc1nc(N/N=C/c2nccn2Cc2ccccc2)nc2ccccc12 | 9650 | 4300 | 9600 | 2620 | – | –
CN(C)CCCNc1nc(N/N=C/c2ccc(Cl)cc2)nc2ccccc12 | 1490 | 1730 | 550 | 270 | – | –
Cc1ccc(Cn2ccnc2/C=N/Nc2nc(NCCCN(C)C)c3ccccc3n2)cc1 | 1690 | 2600 | 3680 | 2440 | – | –

Compound | IC50 [1] [nM] | IC50 [2] [nM] | IC50 [3] [nM] | IC50 [4] [nM] | Ratio IC50 [5] | Ratio IC50 [6]
CN1CCC(Nc2nc(N/N=C/c3ccc(F)cc3)nc3ccccc23)CC1 | 2640 | 1760 | 1950 | 1410 | – | –
CN(C)CCNc1nc(N/N=C/c2ccc(F)cc2)nc2ccccc12 | 5680 | 4100 | 1820 | 1530 | – | –
CN(C)CCNc1nc(N/N=C/c2nccn2Cc2cccc(Cl)c2Cl)nc2ccccc12 | 870 | 1850 | 670 | 260 | – | –
COc1ccc(OC)c(/C=N/Nc2nc(NC3CCN(C)CC3)c3ccccc3n2)c1 | 4760 | 4240 | 7170 | 2830 | – | –
CN(C)CCCNc1nc(N/N=C/c2nccn2Cc2ccccc2)nc2ccccc12 | 4670 | 2130 | 4040 | 1980 | – | –
CN(C)CCNc1nc(N/N=C/c2nccn2Cc2ccc(F)cc2)nc2ccccc12 | 1050 | 2420 | 3060 | 930 | – | –
Fc1ccc(/C=N/Nc2nc(NCCCN3CCOCC3)c3ccccc3n2)cc1 | 5870 | 6770 | 4020 | 2190 | – | –
Oc1cccc(/C=N/Nc2nc(NCCCN3CCOCC3)c3ccccc3n2)c1 | 4670 | 4900 | 6490 | 6320 | – | –
Cc1ccc(-c2cc(NCCN(C)C)c3ccccc3n2)cc1 | 3520 | 4920 | 2060 | 1350 | – | –
CN1CCC(Nc2nc(N/N=C/c3nccn3Cc3ccc(F)cc3)nc3ccccc23)CC1 | 210 | 780 | 980 | 650 | – | –
Clc1ccc(/C=N/Nc2nc(NCCCN3CCOCC3)c3ccccc3n2)cc1 | 4000 | 3550 | 1740 | 610 | – | –
CN1CCC(Nc2nc(N/N=C/c3nccn3Cc3cccc(Cl)c3Cl)nc3ccccc23)CC1 | 31 | 580 | 530 | 15 | 12 | 224
Cc1ccc(Cn2ccnc2/C=N/Nc2nc(NCCN(C)C)c3ccccc3n2)cc1 | 4200 | 2750 | 2980 | 1410 | – | –
CN1CCC(Nc2nc(N/N=C/c3nccn3Cc3ccccc3)nc3ccccc23)CC1 | 1030 | 1380 | 1420 | 750 | – | –
Clc1cccc(Cn2ccnc2/C=N/Nc2nc(NCCCN3CCOCC3)c3ccccc3n2)c1Cl | 910 | 2660 | 1250 | 720 | – | –
